Reference: PubChem BioAssay (NCI)
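1) Cells in 96-well plates. 2) Compound, 48 h, 5 concentrations. 3) Linear interpolation between surrounding doses. 4) Unreached endpoint = highest concentration. Abbreviation: GI50, concentration required for 50% inhibition of growth. TGI marks complete inhibition of growth.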

Tests used:
Test in all cases: NCI anticancer screen, dose series, 48 h
KM12 colon = system: KM12 colon
NCI-H226 lung = system: NCI-H226 lung
UO-31 renal = system: UO-31 renal
SF-539 CNS = system: SF-539 CNS
UACC-62 melanoma = system: UACC-62 melanoma
MALME-3M melanoma = system: MALME-3M melanoma
K-562 leukemia = system: K-562 leukemia
BT-549 breast = system: BT-549 breast
SF-295 CNS = system: SF-295 CNS
LOX IMVI melanoma = system: LOX IMVI melanoma

SMILES	GI50 (KM12 colon) [µM]	TGI (KM12 colon) [µM]	GI50 (NCI-H226 lung) [µM]	TGI (NCI-H226 lung) [µM]	GI50 (UO-31 renal) [µM]	TGI (UO-31 renal) [µM]	GI50 (SF-539 CNS) [µM]	TGI (SF-539 CNS) [µM]	GI50 (UACC-62 melanoma) [µM]	TGI (UACC-62 melanoma) [µM]	GI50 (MALME-3M melanoma) [µM]	TGI (MALME-3M melanoma) [µM]	GI50 (K-562 leukemia) [µM]	TGI (K-562 leukemia) [µM]	GI50 (BT-549 breast) [µM]	TGI (BT-549 breast) [µM]	GI50 (SF-295 CNS) [µM]	TGI (SF-295 CNS) [µM]	GI50 (LOX IMVI melanoma) [µM]	TGI (LOX IMVI melanoma) [µM]
O=C(/C=C/c1cccnc1)c1ccccc1	2.33	6.87	14.6	28.1	11.4	25.5	13.3	28.6	5.14	19.2	15.7	35.9	2.85	8.53	16	29.9	14.3	29.3	1.86	3.62
COc1ccc(/C=C/C(=O)c2ccc(B(O)O)cc2)cc1O	3.96	15	28.2	97.1	16.7	> 92.8	12.5	> 79.6	14.3	33.2	32.3	> 100	2.86	> 100	6.8	20.1	15.1	56.5	4.66	19.1
Fc1ccc(-c2nn3c(COc4ccccc4Cl)nnc3s2)cc1Oc1ccccc1	43.1	> 100	32.7	> 100	27.1	> 100	32.2	92.1	17.8	39	26.2	68.9	> 100	> 100	41.1	> 100	18.9	50.9	22.3	51.9
CC(C)[C@]12O[C@H]1[C@@H]1O[C@]13[C@]1(O[C@H]1C[C@H]1C4=C(CC[C@@]13C)C(=O)OC4)[C@@H]2OC(=O)OC(C)(C)C	0.116	3.41	< 0.0143	0.173	0.0164	> 100	0.0217	0.294	0.0178	0.0571	0.0166	0.0555	0.0199	> 100	0.0172	0.0616	0.0336	> 100	< 0.01	> 100
CCOC(=O)Cc1csc(Nc2nc(O)c(C3=c4ccccc4=NC3=O)s2)n1	20.4	68.9	21.3	42.8	23	51.6	60	> 100	15.7	34.6	25.5	78.4	37.2	> 100	92.3	> 100	32.1	75.3	22.1	54.2
COc1cc2c3c(n(CCCNC(C)(C)CO)c(=O)c2cc1OC)-c1cc2c(cc1C3=O)OCO2	2.19	> 100	0.392	8.33	1.96	> 55.4	0.356	31.3	0.198	5.23	14.8	51.1	2.82	> 55.7	12.9	39.2	0.214	49.1	0.255	2.06
O=C1/C(=C\c2ccc(Cl)cc2)CN(C(=O)c2ccccc2)C/C1=C\c1ccc(Cl)cc1	1.2	3.18	–	> 20.1	1.83	5.33	2.15	5.13	1.86	4.55	9.17	51.7	1.98	> 100	2.89	7.17	3.38	57.7	0.771	2.26
CCN1C2=C(SC(=S)C1=C1SC(C(=O)c3ccccc3)=C(C(=O)c3ccccc3)S1)SC(=Nc1ccccc1)C2=O	51	> 100	25.7	> 100	5.9	> 100	14.4	> 100	12	> 70.1	21.2	> 100	4.91	> 100	5.2	42.7	11.3	> 90.7	1.43	7.06
O=C(NCCCNc1cc(-c2cn(-c3ccccc3)nc2-c2cccc(O)c2)ccn1)c1ccc(F)cc1	3.18	12.3	3.7	12.4	1.78	10.2	2.15	5.41	2.05	5.08	1.95	4.49	1.93	> 100	1.59	6.31	1.86	4.58	2.27	5.88
